In PubChem BioAssay (NCI):
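Method: 48-hour compound exposure of cells in 96-well plates, five concentrations, linear interpolation of endpoints. The concentration for 50% growth inhibition is given as GI50. TGI: total growth inhibition.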

What was measured:
Experiment in all cases: NCI-60 cell line screen, 48 h
NCI-H522 lung = system: NCI-H522 lung
SW-620 colon = system: SW-620 colon
K-562 leukemia = system: K-562 leukemia
PC-3 prostate = system: PC-3 prostate
786-0 renal = system: 786-0 renal
OVCAR-3 ovarian = system: OVCAR-3 ovarian
EKVX NSCLC = system: EKVX NSCLC
SNB-19 CNS = system: SNB-19 CNS
COLO 205 colon = system: COLO 205 colon
CCRF-CEM leukemia = system: CCRF-CEM leukemia
TK-10 renal = system: TK-10 renal
SK-MEL-2 melanoma = system: SK-MEL-2 melanoma
NCI-H226 lung = system: NCI-H226 lung
OVCAR-5 ovarian = system: OVCAR-5 ovarian
BT-549 breast = system: BT-549 breast
SK-OV-3 ovarian = system: SK-OV-3 ovarian
HT29 colon = system: HT29 colon
UACC-257 melanoma = system: UACC-257 melanoma
HCT-116 colon = system: HCT-116 colon
RXF 393 renal = system: RXF 393 renal
UACC-62 melanoma = system: UACC-62 melanoma
T-47D breast = system: T-47D breast
SF-539 CNS = system: SF-539 CNS
OVCAR-4 ovarian = system: OVCAR-4 ovarian
SF-295 CNS = system: SF-295 CNS
SNB-75 CNS = system: SNB-75 CNS
MALME-3M melanoma = system: MALME-3M melanoma
KM12 colon = system: KM12 colon
SK-MEL-5 melanoma = system: SK-MEL-5 melanoma
SN12C renal = system: SN12C renal
UO-31 renal = system: UO-31 renal
OVCAR-8 ovarian = system: OVCAR-8 ovarian
MCF7 breast = system: MCF7 breast
U251 CNS = system: U251 CNS
CAKI-1 renal = system: CAKI-1 renal
LOX IMVI melanoma = system: LOX IMVI melanoma
SK-MEL-28 melanoma = system: SK-MEL-28 melanoma
A549 NSCLC = system: A549 NSCLC
RPMI-8226 leukemia = system: RPMI-8226 leukemia
HOP-62 NSCLC = system: HOP-62 NSCLC
NCI-H23 lung = system: NCI-H23 lung
MOLT-4 leukemia = system: MOLT-4 leukemia
M14 melanoma = system: M14 melanoma
HCT-15 colon = system: HCT-15 colon
IGROV1 ovarian = system: IGROV1 ovarian
HCC-2998 colon = system: HCC-2998 colon
A498 renal = system: A498 renal
HS 578T breast = system: HS 578T breast
MDA-MB-231 breast = system: MDA-MB-231 breast
ACHN renal = system: ACHN renal
HOP-92 NSCLC = system: HOP-92 NSCLC
SF-268 CNS = system: SF-268 CNS
DU-145 prostate = system: DU-145 prostate
MDA-MB-435 = system: MDA-MB-435
NCI-H460 lung = system: NCI-H460 lung

Q: Which results are given for Cc1ccc2[nH]c(C(=O)NN3C(=O)CSC34CCCC(C)C4)c(-c3ccccc3)c2c1 (stereo not given)?
A: GI50 (NCI-H522 lung): 11.9 µM; TGI (NCI-H522 lung): 25.6 µM; GI50 (SW-620 colon): 25.6 µM; TGI (SW-620 colon): 67.1 µM; GI50 (K-562 leukemia): 12.7 µM; TGI (K-562 leukemia): 39.2 µM; GI50 (PC-3 prostate): 14.2 µM; TGI (PC-3 prostate): 29.6 µM; GI50 (786-0 renal): 19.6 µM; TGI (786-0 renal): 39.3 µM; GI50 (OVCAR-3 ovarian): 13.8 µM; TGI (OVCAR-3 ovarian): 30.3 µM; GI50 (EKVX NSCLC): 24.2 µM; TGI (EKVX NSCLC): 58.8 µM; GI50 (SNB-19 CNS): 18.6 µM; TGI (SNB-19 CNS): 36.6 µM; GI50 (COLO 205 colon): 17.5 µM; TGI (COLO 205 colon): 35.4 µM; GI50 (CCRF-CEM leukemia): 10.8 µM; TGI (CCRF-CEM leukemia): 31.8 µM; GI50 (TK-10 renal): 17.2 µM; TGI (TK-10 renal): 34.7 µM; GI50 (SK-MEL-2 melanoma): 9.12 µM; TGI (SK-MEL-2 melanoma): 23.1 µM; GI50 (NCI-H226 lung): 18.4 µM; TGI (NCI-H226 lung): 35.2 µM; GI50 (OVCAR-5 ovarian): 18.3 µM; TGI (OVCAR-5 ovarian): 34.8 µM; GI50 (BT-549 breast): 19.5 µM; TGI (BT-549 breast): 36.5 µM; GI50 (SK-OV-3 ovarian): 21.5 µM; TGI (SK-OV-3 ovarian): 48.3 µM; GI50 (HT29 colon): 13.8 µM; TGI (HT29 colon): 29.4 µM; GI50 (UACC-257 melanoma): 19.2 µM; TGI (UACC-257 melanoma): 35 µM; GI50 (HCT-116 colon): 14.6 µM; TGI (HCT-116 colon): 31 µM; GI50 (RXF 393 renal): 5.85 µM; TGI (RXF 393 renal): 20.3 µM; GI50 (UACC-62 melanoma): 13.9 µM; TGI (UACC-62 melanoma): 29.2 µM; GI50 (T-47D breast): 20.3 µM; TGI (T-47D breast): 55.2 µM; GI50 (SF-539 CNS): 21 µM; TGI (SF-539 CNS): 39.4 µM; GI50 (OVCAR-4 ovarian): 18.4 µM; TGI (OVCAR-4 ovarian): 40.2 µM; GI50 (SF-295 CNS): 17.2 µM; TGI (SF-295 CNS): 33.5 µM; GI50 (SNB-75 CNS): 17.1 µM; TGI (SNB-75 CNS): 34.6 µM; GI50 (MALME-3M melanoma): 18.3 µM; TGI (MALME-3M melanoma): 34.7 µM; GI50 (KM12 colon): 16.2 µM; TGI (KM12 colon): 34.3 µM; GI50 (SK-MEL-5 melanoma): 17.4 µM; TGI (SK-MEL-5 melanoma): 34.9 µM; GI50 (SN12C renal): 16.6 µM; TGI (SN12C renal): 32.2 µM; GI50 (UO-31 renal): 0.0274 µM; TGI (UO-31 renal): 10.6 µM; GI50 (OVCAR-8 ovarian): 15.6 µM; TGI (OVCAR-8 ovarian): 32.9 µM; GI50 (MCF7 breast): 15.4 µM; TGI (MCF7 breast): 38.5 µM; GI50 (U251 CNS): 17.3 µM; TGI (U251 CNS): 33.6 µM; GI50 (CAKI-1 renal): 15.5 µM; TGI (CAKI-1 renal): 33.8 µM; GI50 (LOX IMVI melanoma): 19.8 µM; TGI (LOX IMVI melanoma): 37.1 µM; GI50 (SK-MEL-28 melanoma): 19.7 µM; TGI (SK-MEL-28 melanoma): 37.6 µM; GI50 (A549 NSCLC): 15.2 µM; TGI (A549 NSCLC): 30.5 µM; GI50 (RPMI-8226 leukemia): 13.7 µM; TGI (RPMI-8226 leukemia): 31.5 µM; GI50 (HOP-62 NSCLC): 19.2 µM; TGI (HOP-62 NSCLC): 35.1 µM; GI50 (NCI-H23 lung): 20 µM; TGI (NCI-H23 lung): 36 µM; GI50 (MOLT-4 leukemia): 8.77 µM; TGI (MOLT-4 leukemia): 31.9 µM; GI50 (M14 melanoma): 18.8 µM; TGI (M14 melanoma): 35.5 µM; GI50 (HCT-15 colon): 18.3 µM; TGI (HCT-15 colon): 37.2 µM; GI50 (IGROV1 ovarian): 0.0485 µM; TGI (IGROV1 ovarian): 12 µM; GI50 (HCC-2998 colon): 14.5 µM; TGI (HCC-2998 colon): 28.8 µM; GI50 (A498 renal): 17.5 µM; TGI (A498 renal): 36.3 µM; GI50 (HS 578T breast): 28.2 µM; TGI (HS 578T breast): 68 µM; GI50 (MDA-MB-231 breast): 17.2 µM; TGI (MDA-MB-231 breast): 34 µM; GI50 (ACHN renal): 18.3 µM; TGI (ACHN renal): 36.1 µM; GI50 (HOP-92 NSCLC): 13.1 µM; TGI (HOP-92 NSCLC): 28.3 µM; GI50 (SF-268 CNS): 15.6 µM; TGI (SF-268 CNS): 32.5 µM; GI50 (DU-145 prostate): 18.7 µM; TGI (DU-145 prostate): 42.4 µM; GI50 (MDA-MB-435): 18 µM; TGI (MDA-MB-435): 34.8 µM; GI50 (NCI-H460 lung): 18.1 µM; TGI (NCI-H460 lung): 38.4 µM
